# The supplement of paper PMC11451515
# Tested on: NOMO1
# Assay: cell viability relative to DMSO control; higher = less cytotoxic
# Settings: 48 h
# In short: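 In 1536-well plates, 5 μl of leukemia cells were seeded per well: 500 cells/well for NOMO1 or SEM and 1000 cells/well for P12-Ichikawa. Each line had first been adapted for at least four passages in each medium. Library compounds in DMSO were pin-dosed at 11 threefold concentrations between 47 μM and 0.79 nM, and CellTiter-Glo One luminescence was read after 48 h at 37°C. Viability is a per-plate percentage relative to DMSO wells, with cell-free wells as background.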
# [1] = HPLM + 10% dialyzed FBS, 0.000781 µM
# [2] = HPLM + 10% dialyzed FBS, 0.00234 µM
# [3] = HPLM + 10% dialyzed FBS, 0.00702 µM
# [4] = HPLM + 10% dialyzed FBS, 0.0211 µM
# [5] = HPLM + 10% dialyzed FBS, 0.0632 µM
# [6] = HPLM + 10% dialyzed FBS, 0.19 µM
# [7] = HPLM + 10% dialyzed FBS, 0.569 µM
# [8] = HPLM + 10% dialyzed FBS, 1.71 µM
# [9] = HPLM + 10% dialyzed FBS, 5.12 µM
# [10] = HPLM + 10% dialyzed FBS, 15.4 µM
# [11] = HPLM + 10% dialyzed FBS, 46.1 µM
# [12] = RPMI 5 mM glucose + 10% FBS, 0.000781 µM
# [13] = RPMI 5 mM glucose + 10% FBS, 0.00234 µM
# [14] = RPMI 5 mM glucose + 10% FBS, 0.00702 µM
# [15] = RPMI 5 mM glucose + 10% FBS, 0.0211 µM
# [16] = RPMI 5 mM glucose + 10% FBS, 0.0632 µM
# [17] = RPMI 5 mM glucose + 10% FBS, 0.19 µM
# [18] = RPMI 5 mM glucose + 10% FBS, 0.569 µM
# [19] = RPMI 5 mM glucose + 10% FBS, 1.71 µM
# [20] = RPMI 5 mM glucose + 10% FBS, 5.12 µM
# [21] = RPMI 5 mM glucose + 10% FBS, 15.4 µM
# [22] = RPMI 5 mM glucose + 10% FBS, 46.1 µM
# [23] = RPMI 5 mM glucose + 10% dialyzed FBS, 0.000781 µM
# [24] = RPMI 5 mM glucose + 10% dialyzed FBS, 0.00234 µM
# [25] = RPMI 5 mM glucose + 10% dialyzed FBS, 0.00702 µM
# [26] = RPMI 5 mM glucose + 10% dialyzed FBS, 0.0211 µM
# [27] = RPMI 5 mM glucose + 10% dialyzed FBS, 0.0632 µM
# [28] = RPMI 5 mM glucose + 10% dialyzed FBS, 0.19 µM
# [29] = RPMI 5 mM glucose + 10% dialyzed FBS, 0.569 µM
# [30] = RPMI 5 mM glucose + 10% dialyzed FBS, 1.71 µM
# [31] = RPMI 5 mM glucose + 10% dialyzed FBS, 5.12 µM
# [32] = RPMI 5 mM glucose + 10% dialyzed FBS, 15.4 µM
# [33] = RPMI 5 mM glucose + 10% dialyzed FBS, 46.1 µM
Compound,cell viability [1],cell viability [2],cell viability [3],cell viability [4],cell viability [5],cell viability [6],cell viability [7],cell viability [8],cell viability [9],cell viability [10],cell viability [11],cell viability [12],cell viability [13],cell viability [14],cell viability [15],cell viability [16],cell viability [17],cell viability [18],cell viability [19],cell viability [20],cell viability [21],cell viability [22],cell viability [23],cell viability [24],cell viability [25],cell viability [26],cell viability [27],cell viability [28],cell viability [29],cell viability [30],cell viability [31],cell viability [32],cell viability [33]
O=[N+]([O-])c1ccc(Nc2ccccc2-c2ccccc2)c2nonc12,87.1%,84.3%,100%,92.6%,81.9%,100%,97%,101%,106%,89%,98.1%,81.5%,89.9%,87.9%,91.9%,85.3%,92.8%,84.4%,102%,95.8%,94.2%,89.4%,76.3%,82.6%,88%,89.8%,92.5%,90.2%,89.2%,96.1%,87.5%,78.2%,88.7%
COc1ccccc1OCCNCC(O)COc1cccc2[nH]c3ccccc3c12 (centres undefined),132%,124%,116%,121%,123%,131%,139%,117%,139%,123%,116%,116%,112%,114%,119%,112%,103%,113%,113%,118%,113%,102%,123%,120%,119%,132%,114%,128%,144%,118%,129%,124%,112%
CN(CCOc1ccc(NS(C)(=O)=O)cc1)CCc1ccc(NS(C)(=O)=O)cc1,108%,126%,110%,116%,136%,138%,147%,133%,131%,135%,134%,121%,119%,109%,129%,117%,120%,135%,120%,141%,118%,136%,–,–,–,–,–,–,–,–,–,–,–
C=C[C@H]1CN2CCC1C[C@@H]2[C@@H](O)c1ccnc2ccccc12 (some centres undefined),97%,109%,105%,93.7%,99.7%,107%,92.7%,97.1%,86%,93.1%,74.9%,90.3%,90.6%,94.1%,85.4%,91.4%,91.1%,84.9%,86.1%,89.9%,83.8%,85.2%,101%,114%,96.7%,99.3%,92.6%,96%,85.2%,99.1%,84.1%,85.4%,76.8%
CC(Cc1ccc(O)c(O)c1)(NN)C(=O)O (centres undefined),104%,109%,102%,103%,117%,113%,107%,99.3%,115%,121%,92.3%,114%,118%,113%,126%,115%,103%,105%,109%,112%,110%,106%,114%,106%,129%,128%,123%,106%,103%,99.8%,116%,106%,94.7%
CCCOc1ccc2[nH]c(NC(=O)OC)nc2c1,116%,116%,104%,102%,76.5%,36.9%,31.7%,32%,50.3%,36.6%,36.6%,122%,116%,120%,121%,98.3%,28.6%,21.1%,19.4%,26.7%,22.6%,25.2%,–,–,–,–,–,–,–,–,–,–,–
NC/1=N/C(=O)N(C[C@@H](CO)OC[P](O)(O)=O)/C=C1,–,–,–,–,–,–,–,–,–,–,–,125%,149%,123%,122%,136%,135%,128%,119%,122%,123%,128%,–,–,–,–,–,–,–,–,–,–,–
C[C@@H](NCc1cc2ccccc2[nH]1)c1cccc2ccccc12,88.3%,82.2%,91.6%,90.6%,94.6%,95.5%,91.9%,95.2%,97.1%,92.3%,100%,84.3%,87.5%,80.1%,86.1%,90.5%,88.1%,97.4%,89.8%,95.5%,94.5%,91.8%,93.6%,89.8%,89%,87.8%,84.2%,102%,102%,93.7%,97%,92.3%,102%
CC(C)C(=O)Nc1ncc(-c2cc(C(F)F)nn2-c2c(Cl)cccc2Cl)s1,116%,123%,112%,137%,152%,125%,148%,132%,133%,133%,83.9%,–,–,–,–,–,–,–,–,–,–,–,–,–,–,–,–,–,–,–,–,–,–
O=C1CCC[C@@H]2[C@H]3CCC[N+]4([O-])CCC[C@@H](CN12)[C@@H]34 (some centres undefined),75.3%,92.3%,98.9%,87.6%,105%,98.2%,88.4%,94.5%,56.9%,10.1%,5.34%,83.5%,86.8%,86.1%,92.7%,98.7%,92%,107%,94.1%,64.3%,22%,6.85%,79.1%,88.7%,93.2%,97.4%,97.8%,98.7%,94.4%,88.9%,51.3%,29.7%,5.35%
O=[S+]([O-])(CCSSCC[S+](=O)([O-])[O][Na])[O][Na],110%,104%,132%,124%,120%,112%,133%,125%,135%,129%,141%,107%,115%,125%,119%,127%,123%,125%,129%,147%,130%,142%,107%,112%,126%,130%,121%,122%,125%,139%,134%,144%,127%
CC1=CC=C2\N=C/3N(CC[C@@]3(O)C(=O)C2=C1)C4=CC=CC=C4,102%,103%,96.2%,104%,104%,95.4%,105%,88.3%,74%,88.9%,91.3%,82%,88.2%,93.6%,85.4%,79.3%,79.5%,84%,84.4%,75.8%,92.2%,85.9%,94.5%,95.1%,87.5%,86.7%,101%,92%,86.7%,88.9%,79.2%,84.9%,82.9%
CCOC(CN1C(=O)[C@](CC(=O)Nc2ccc(C)cc2)(NC(=O)Nc2ccc(C)cc2)c2ccccc21)OCC,109%,112%,125%,113%,123%,122%,126%,124%,106%,83.8%,70.7%,110%,107%,106%,107%,113%,104%,123%,125%,113%,103%,49.8%,99.2%,101%,105%,99.8%,114%,115%,109%,115%,99.3%,93%,60.3%
NC1CCC(Nc2nc(Nc3ccc(C(=O)N4CCCCC4)cc3)c3ncn(-c4cccc(F)c4)c3n2)CC1 (centres undefined),114%,110%,119%,121%,132%,117%,129%,144%,107%,119%,154%,117%,113%,113%,126%,123%,124%,129%,107%,123%,128%,129%,118%,114%,133%,113%,121%,127%,127%,121%,125%,119%,123%
CCc1c(O)cc(O)c(C(=O)c2ccc(OCCN3CCOCC3)c(OC)c2)c1CC(=O)N(CCOC)CCOC,102%,106%,117%,127%,127%,119%,114%,80.7%,21.2%,13.7%,11.6%,101%,101%,113%,106%,118%,124%,109%,93.4%,21.6%,12.3%,11.3%,115%,114%,114%,108%,114%,106%,102%,98.8%,28.2%,16.4%,14.1%
O=C(NCCO[N+](=O)[O-])c1cccnc1,112%,124%,123%,133%,137%,126%,136%,135%,129%,123%,62.3%,–,–,–,–,–,–,–,–,–,–,–,118%,120%,123%,135%,127%,119%,133%,124%,125%,125%,92.1%
CCCCCCCCOc1ccccc1C(=O)Nc1ccc(C(=O)OCC[N+](C)(CC)CC)cc1,101%,104%,103%,104%,110%,99.5%,85.8%,100%,78.1%,88.1%,28.7%,84.6%,94.7%,93.2%,83.8%,93.4%,86.4%,90.1%,83.7%,82%,81%,21.7%,92.8%,93.5%,96.6%,90.1%,98.3%,91.9%,83.7%,84.4%,73.9%,88.8%,31.8%
